Measurements taken from patent publication US20230255943A1, “MMP-9 AND MMP-12 INHIBITION FOR TREATING SPINAL CORD INJURY OR RELATED INJURY TO NEUROLOGICAL TISSUE” (The University of Birmingham, priority 2020, published 2023).

How the values were obtained:
[1] = biological target: T1, MMP-9 (Mus musculus, UniProt P41245); assay: MMP-9 enzyme activity after SCI in mice (SensoLyte 520 fluorimetric assay); format: in vivo; details: for suppression of MMP-9 activity in CSF / suppression of MMP-9 activity in serum / suppression of MMP-9 activity in spinal cord tissues: DC injury; for suppression of MMP-9 activity in spinal cord tissues: lowest most effective dose; for lowest most effective dose: suppression of MMP-9 and MMP-12 activity
T1 construct: from tissue; host or cells: mouse spinal cord lesion site homogenate, serum and CSF
T1 sequence (P41245 108-730): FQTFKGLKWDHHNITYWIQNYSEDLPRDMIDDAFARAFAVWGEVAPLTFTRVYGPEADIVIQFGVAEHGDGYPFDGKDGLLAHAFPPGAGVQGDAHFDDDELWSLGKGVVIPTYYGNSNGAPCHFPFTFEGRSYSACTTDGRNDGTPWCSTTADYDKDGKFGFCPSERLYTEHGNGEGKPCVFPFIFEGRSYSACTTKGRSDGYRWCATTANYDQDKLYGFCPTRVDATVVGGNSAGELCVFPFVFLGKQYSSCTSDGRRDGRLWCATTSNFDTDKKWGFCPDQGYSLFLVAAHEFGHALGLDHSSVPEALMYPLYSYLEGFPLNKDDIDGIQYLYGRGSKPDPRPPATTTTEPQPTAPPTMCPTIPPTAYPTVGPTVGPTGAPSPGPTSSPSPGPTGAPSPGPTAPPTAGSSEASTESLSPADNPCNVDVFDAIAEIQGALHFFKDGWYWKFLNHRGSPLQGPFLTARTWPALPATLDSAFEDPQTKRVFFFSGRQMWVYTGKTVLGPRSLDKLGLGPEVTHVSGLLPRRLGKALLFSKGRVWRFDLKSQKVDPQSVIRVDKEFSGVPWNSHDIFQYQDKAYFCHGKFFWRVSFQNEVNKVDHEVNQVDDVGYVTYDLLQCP
Procedure: For oral delivery of AZD1236, n=6 adult male C57BL6 mice/group (Charles River, Margate, UK) were randomly allocated to either: (1), Sham (control; partial laminectomy but no DC crush injury); (2), DC crush injury+vehicle (partial laminectomy followed by DC crush injury and injection of vehicle); (3), DC crush injury+100 mg/kg AZD1236; (4), DC crush injury+200 mg/kg AZD1236; and (5), DC crush injury+300 mg/kg AZD1236. For intrathecal (it) delivery of AZD1236, adult male C57BL6 mice (25-30 g) (Charles River, Margate, UK) were randomly allocated to either: (1), Sham (control; partial laminectomy but no DC crush injury); (2), DC crush injury+vehicle (partial laminectomy followed by DC crush injury and injection of vehicle); (3), DC crush injury+2.5 mg/kg AZD1236; (4), DC crush injury+5 mg/kg AZD1236; and (5), DC crush injury+10 mg/kg AZD1236. For intrathecal delivery an indwelling atlanto-occipital intrathecal catheter was inserted into the intrathecal space, as described previously (F. A. Oladosu, B. P. Ciszek, S. C. O'Buckley, A. G. Nackley, Novel intrathecal and subcutaneous catheter delivery systems in the mouse. J Neurosci Methods 264, 119-128 (2016)). Briefly, with mice in the sternal recumbency a small incision was made at the nape of the neck followed by detachment of the muscles on either side of the external occipital crest to expose the A-O membrane. The membrane was incised and a 6 cm Alzet mouse intrathecal catheter (Alzet, Cupertino, Calif., USA) and polyurethane segments were gently guided 2.5 cm into the intrathecal space. The catheter was secured using 4-0 silk sutures (Oasis Medical, IL) and the exposed end of the catheter was sealed off with a stainless-steel plug and affixed to the upper back. Animals were injected immediately with vehicle or AZD1236 followed by a 10 μl PBS catheter flush. Injections were repeated every twice daily for the first 3 days after injury and drugs and vehicle reagents were delivered over 1 min time period using a Hamilton microlitre syringe (Hamilton Co, USA). Where specified intact animals with no surgical procedures were also used. All lesions were administered under 5% isofluorane induced inhalation anaesthesia, with 1.51/min O2. Pre- and post-injury analgesia was also provided.
DC crush injury was administered bilaterally at the T8 vertebral level as described previously (S. Surey, M. Berry, A. Logan, R. Bicknell, Z. Ahmed, Differential cavitation, angiogenesis and wound-healing responses in injured mouse and rat spinal cords. Neuroscience 275, 62-80 (2014); M. L. Read, S. Mir, R. Spice, R. J. Seabright, E. L. Suggate, Z. Ahmed, M. Berry, A. Logan, Profiling RNA interference (RNAi)-mediated toxicity in neural cultures for effective short interfering RNA design. J Gene Med 11, 523-534 (2009)). Briefly, calibrated watchmaker's forceps were separated by 0.5 mm and inserted through the dorsal cord meninges to a depth of 0.45 mm in mice and separated by 1 mm and inserted through the dorsal cord meninges to a depth of 1.0 mm in rats, and the DC were crushed for 3 seconds. AZD1236 or vehicle was administered twice daily by oral gavage or intrathecally, either immediately for the first 3 days or 24 hours after injury and treating twice daily until day 4 (i.e. 3 days of AZD1236 dosing). All experiments were performed with n=6 mice/group and repeated on at least 2-3 independent occasions (total=12-18 animals/group/test).
CC SCI was administered at the T7-T8 vertebral level after exposure of T6-T9 by laminectomy. […]

[2] = tested on: gelatinase enzyme activity; assay: In situ zymography of DC-injured spinal cord sections; format: in vivo, mouse; details: oral and intrathecally-administered
Procedure: Animals were killed by CO2 overdose intracardially perfused with warm PBS and unfixed tissues were harvested. […] In situ zymography was performed as described previously (Z. Ahmed, R. G. Dent, W. E. Leadbeater, C. Smith, M. Berry, A. Logan, Matrix metalloproteases: degradation of the inhibitory environment of the transected optic nerve and the scar by regenerating axons. Mol Cell Neurosci 28, 64-78 (2005)).
Briefly, 15 μm-thick unfixed frozen longitudinal sections of the spinal cord were cut on a cryostat and incubated at 25° C., for 24 h in 50 mM Tris, pH 7.4, 150 mM NaCl, 5 mM CaCl2, 0.2 mM sodium azide and 40 ug/ml fluorescein conjugated DQ™ gelatin (Molecular Probes). Upon proteolysis, the highly fluoresceinated gelatin residues became separated and fluorescence resulted. Control sections were incubated either without DQ™ gelatin or incubated with 50 μM 1,10-phenanthroline (Sigma, Poole, UK) to block MMP activation. […] After final washes in PBS, sections were mounted in Vectashield with DAPI (Vector Laboratories, Loughborough, UK) and viewed with a Zeiss Axioplan 2 fluorescence microscope, equipped with an AxioCam HRc and running Axiovision software (Zeiss, Hertfordshire, UK).

[3] = tested on: mice with DC crush injury; assay: CSF biomarkers of SCI (S100β, NSE, GFAP, pNF-H, NF-L); format: in vivo, mouse; details: 3 d after injury
[4] = tested on: rats with DC crush injury; assay: Spinal cord water content after DC injury in rats; format: in vivo; details: rat DC injury, oral, 3 days
Procedure: DC crush injury was administered bilaterally at the T8 vertebral level as described previously (S. Surey, M. Berry, A. Logan, R. Bicknell, Z. Ahmed, Differential cavitation, angiogenesis and wound-healing responses in injured mouse and rat spinal cords. Neuroscience 275, 62-80 (2014); M. L. Read, S. Mir, R. Spice, R. J. Seabright, E. L. Suggate, Z. Ahmed, M. Berry, A. Logan, Profiling RNA interference (RNAi)-mediated toxicity in neural cultures for effective short interfering RNA design. J Gene Med 11, 523-534 (2009)). […]
The efficacy of oral AZD3342 in the DC injury model in adult Sprague-Dawley rat was also assessed. […]
The lesion site+3 mm either side for mice and the lesion site+5 mm either side for the rat DC model were dissected out and the water content of the spinal cord (as a measure of oedema) was determined at 3 days after DC and CC SCI, as described previously (S. Li, C. H. Tator, Effects of MK801 on evoked potentials, spinal cord blood flow and cord edema in acute spinal cord injury in rats. Spinal Cord 37, 820-832 (1999)). […] The percent water content was calculated as: water content (%)=[(wet weight-dry weight)/wet weight]×100%.

SMILES	suppression of MMP-9 activity in CSF ([1]; intrathecal delivery) [%]	suppression of MMP-9 activity in serum ([1]; intrathecal delivery) [%]	suppression of MMP-9 activity in spinal cord tissues ([1]; intrathecal) [%]	suppression of MMP-9 activity in CSF ([1]; oral delivery, 200 mg/kg) [%]	suppression of MMP-9 activity in serum ([1]; oral delivery, 200 mg/kg) [%]	suppression of MMP-9 activity in spinal cord tissues ([1]; oral) [%]	time for MMP-9 activity to return to DC+Vehicle injury levels after withdrawal ([1]; injury site, oral dosing withdrawn after 3 d) [days]	lowest most effective dose ([1]; intrathecal injection) [mg/kg]	MMP-9 activity, 24-h delayed treatment ([1]; optimal doses, 24 h delay vs immediate)	lowest most effective dose ([1]; oral administration) [mg/kg]	DC injury-induced gelatinase activity adjacent to the lesion site [2]	levels of S100β, NSE, GFAP, pNF-H and NF-L in CSF [3]	SCI-induced edema (spinal cord water content) [4]
C[C@]1(CS(=O)(=O)N2CC=C(C#Cc3cnc(C4CC4)nc3)CC2)NC(=O)NC1=O [AZD1236]	88±2	71±2	87±5	74±2	90±2	88±4	4	5	equally as effective as immediate delivery	200	completely suppressed	significantly attenuated all of these biomarkers to near sham-control levels	–
C[C@]1(CS(=O)(=O)N2CCC(Oc3ccc(Cl)cn3)CC2)NC(=O)NC1=O [AZD3342, (5S)-5-[4-(5-chloro-pyridin-2-yloxy)-piperidine-1-sulfonylmethyl]-5-methylimidazolidine-2,4-dione]	–	–	–	–	–	–	–	–	–	–	–	–	suppressed
